Source: PubChem BioAssay (NCI)
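All cell lines were grown in 96-well plates and treated with compound for 48 hours. TGI: concentration producing complete growth inhibition.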

Columns and labels:
Assay in all cases: growth of human tumour cells (NCI), 48 h
CAKI-1 renal = tested on: CAKI-1 renal
ACHN renal = tested on: ACHN renal
SNB-19 CNS = tested on: SNB-19 CNS
KM20L2 colon = tested on: KM20L2 colon
DMS 114 small cell lung = tested on: DMS 114 small cell lung
U251 CNS = tested on: U251 CNS
UO-31 renal = tested on: UO-31 renal
786-0 renal = tested on: 786-0 renal
SF-539 CNS = tested on: SF-539 CNS
SK-MEL-2 melanoma = tested on: SK-MEL-2 melanoma
RPMI-8226 leukemia = tested on: RPMI-8226 leukemia
SN12C renal = tested on: SN12C renal
A549 NSCLC = tested on: A549 NSCLC
SR leukemia = tested on: SR leukemia
EKVX NSCLC = tested on: EKVX NSCLC
RXF 393 renal = tested on: RXF 393 renal
KM12 colon = tested on: KM12 colon
HCT-15 colon = tested on: HCT-15 colon
NCI-H522 lung = tested on: NCI-H522 lung
SK-MEL-28 melanoma = tested on: SK-MEL-28 melanoma
SW-620 colon = tested on: SW-620 colon
NCI-H226 lung = tested on: NCI-H226 lung
SK-MEL-5 melanoma = tested on: SK-MEL-5 melanoma
RXF-631 renal = tested on: RXF-631 renal
OVCAR-3 ovarian = tested on: OVCAR-3 ovarian
HCC-2998 colon = tested on: HCC-2998 colon
IGROV1 ovarian = tested on: IGROV1 ovarian
SF-268 CNS = tested on: SF-268 CNS
MALME-3M melanoma = tested on: MALME-3M melanoma
A498 renal = tested on: A498 renal
DMS 273 small cell lung = tested on: DMS 273 small cell lung
OVCAR-4 ovarian = tested on: OVCAR-4 ovarian
UACC-62 melanoma = tested on: UACC-62 melanoma
K-562 leukemia = tested on: K-562 leukemia
CCRF-CEM leukemia = tested on: CCRF-CEM leukemia
HOP-62 NSCLC = tested on: HOP-62 NSCLC
SNB-78 CNS = tested on: SNB-78 CNS
DLD-1 colon = tested on: DLD-1 colon
COLO 205 colon = tested on: COLO 205 colon
LXFL 529 NSCLC = tested on: LXFL 529 NSCLC
MOLT-4 leukemia = tested on: MOLT-4 leukemia
TK-10 renal = tested on: TK-10 renal
M14 melanoma = tested on: M14 melanoma
M19-MEL melanoma = tested on: M19-MEL melanoma
HOP-18 NSCLC = tested on: HOP-18 NSCLC
NCI-H460 lung = tested on: NCI-H460 lung
HCT-116 colon = tested on: HCT-116 colon
OVCAR-8 ovarian = tested on: OVCAR-8 ovarian
UACC-257 melanoma = tested on: UACC-257 melanoma
SK-OV-3 ovarian = tested on: SK-OV-3 ovarian
HL-60(TB) leukemia = tested on: HL-60(TB) leukemia
SNB-75 CNS = tested on: SNB-75 CNS
OVCAR-5 ovarian = tested on: OVCAR-5 ovarian
XF 498 CNS = tested on: XF 498 CNS
LOX IMVI melanoma = tested on: LOX IMVI melanoma
NCI-H23 lung = tested on: NCI-H23 lung
HT29 colon = tested on: HT29 colon
SF-295 CNS = tested on: SF-295 CNS
HOP-92 NSCLC = tested on: HOP-92 NSCLC

Measured: TGI

O=C(Nc1ccc(Nc2ccc(NC(=O)c3ccccc3)c3c2C(=O)c2ccccc2C3=O)c2c1C(=O)c1ccccc1C2=O)c1ccccc1
not listed: OVCAR-5 ovarian | XF 498 CNS | LOX IMVI melanoma | NCI-H23 lung | HT29 colon | SF-295 CNS | HOP-92 NSCLC
> 100 µM: all other assays above

COC(=O)C1=C(C)N(NC(N)=O)C2(N)N(NC(N)=O)C(C)=C(C(=O)OC)C12C#N (stereo unspecified)
not listed: SR leukemia | RXF 393 renal | SK-MEL-5 melanoma | LXFL 529 NSCLC | SNB-75 CNS
> 100 µM: all other assays above
